The values below come from patent US10829473B2, “Modulators of the cystic fibrosis transmembrane conductance regulator protein and methods of use” (AbbVie Overseas S.Á.R.L., priority 2017, dated 2020).

Molecules are shown by their SMILES. Read-outs that look alike come from different tables or passages of the source. Marks after values point to notes of the source that are not given here.

The assay concerns the target T1, F508delCFTR (Homo sapiens, UniProt P13569, DEL508-508).
T1 construct: expressed in transfected cells; host or cells: CFBE41o- human lung derived epithelial cells (CFBE41o-F508delCFTR-HRP), doxycycline-inducible
Put plainly: Cell Surface Expression-Horse Radish Peroxidase (CSE-HRP) Assay.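 On EC50 (with co-corrector): co-corrector chromenyl benzoic acid corrector at 2 or 3 µM.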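 On Maximum % activity (without co-corrector): % of on-plate positive control chromenyl benzoic acid corrector at 2 or 3 µM.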 The settings on record: for Maximum % activity (with co-corrector) / Emax: maximum at any tested concentration; for Emax: read-out: Maximum % activity (without co-corrector). It is filed as cell-based. Summed up: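 Corrector compounds were given as 8-point 3-fold series from 20 or 30 μM, with or without a 2 μM co-corrector, for 18-24 h at 33 °C. Surface HRP was read by luminol luminescence as % of positive control; variable-Hill-slope sigmoidal fitting gave EC50 from triplicate plates.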

Where [1] appears, read: test compound alone, without co-corrector, read-out: EC50 (without co-corrector).
Setting [2] is: with co-corrector, read-out: EC50 (with co-corrector).
The mark [3] stands for this setting: test compound with co-corrector.
Setting [4] is: test compound with co-corrector, read-out: EC50 (with co-corrector).
[5] abbreviates: test compound without co-corrector.
[6] abbreviates: test compound without co-corrector, read-out: EC50 (without co-corrector).

T1 sequence (P13569 with tags, fused parts or gaps DEL508-508): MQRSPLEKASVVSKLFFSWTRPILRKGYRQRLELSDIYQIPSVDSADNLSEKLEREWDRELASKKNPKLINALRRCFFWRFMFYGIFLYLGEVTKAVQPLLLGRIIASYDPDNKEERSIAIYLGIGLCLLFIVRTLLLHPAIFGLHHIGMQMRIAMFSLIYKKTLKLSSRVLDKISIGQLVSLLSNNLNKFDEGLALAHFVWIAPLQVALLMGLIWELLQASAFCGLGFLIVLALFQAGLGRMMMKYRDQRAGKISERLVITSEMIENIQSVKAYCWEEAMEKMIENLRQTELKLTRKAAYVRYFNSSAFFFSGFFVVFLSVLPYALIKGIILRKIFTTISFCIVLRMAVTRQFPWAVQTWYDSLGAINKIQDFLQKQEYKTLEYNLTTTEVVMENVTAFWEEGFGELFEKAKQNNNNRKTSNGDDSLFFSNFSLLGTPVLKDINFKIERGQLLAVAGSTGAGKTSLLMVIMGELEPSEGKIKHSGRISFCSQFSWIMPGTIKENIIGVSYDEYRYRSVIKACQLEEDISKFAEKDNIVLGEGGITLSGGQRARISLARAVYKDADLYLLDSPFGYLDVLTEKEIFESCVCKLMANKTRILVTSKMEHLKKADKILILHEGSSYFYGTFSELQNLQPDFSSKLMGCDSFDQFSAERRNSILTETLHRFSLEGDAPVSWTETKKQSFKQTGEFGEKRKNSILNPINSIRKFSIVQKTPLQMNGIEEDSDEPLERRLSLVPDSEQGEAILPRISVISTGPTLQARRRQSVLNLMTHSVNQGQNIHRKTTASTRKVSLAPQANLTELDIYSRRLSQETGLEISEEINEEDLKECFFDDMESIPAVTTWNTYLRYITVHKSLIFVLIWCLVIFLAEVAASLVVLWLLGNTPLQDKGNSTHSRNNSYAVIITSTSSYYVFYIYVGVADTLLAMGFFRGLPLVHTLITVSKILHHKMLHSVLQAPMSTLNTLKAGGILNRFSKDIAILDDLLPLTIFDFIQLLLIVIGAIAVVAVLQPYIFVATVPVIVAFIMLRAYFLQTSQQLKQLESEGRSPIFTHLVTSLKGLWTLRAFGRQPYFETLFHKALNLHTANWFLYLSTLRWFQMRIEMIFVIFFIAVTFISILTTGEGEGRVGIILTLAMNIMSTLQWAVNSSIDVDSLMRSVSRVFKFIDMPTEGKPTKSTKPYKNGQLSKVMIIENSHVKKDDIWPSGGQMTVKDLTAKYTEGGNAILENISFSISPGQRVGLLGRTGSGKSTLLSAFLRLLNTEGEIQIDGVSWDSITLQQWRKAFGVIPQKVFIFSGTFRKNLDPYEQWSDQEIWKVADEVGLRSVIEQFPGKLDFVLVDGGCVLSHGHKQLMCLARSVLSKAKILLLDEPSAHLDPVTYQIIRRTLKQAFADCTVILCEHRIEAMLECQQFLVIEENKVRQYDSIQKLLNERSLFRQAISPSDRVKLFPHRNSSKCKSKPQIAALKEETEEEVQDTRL

One may read the EC50 as the concentration giving half of the maximal effect. `CC(C)(C)OC(=O)N1CCC(C(=O)NS(=O)(=O)c2cccc3ccccc23)(c2ccc(F)cc2)CC1` [Example III-89, tert-butyl 4-(4-fluorophenyl)-4-[(naphthalene-1-sulfonyl)carbamoyl]piperidine-1-carboxylate]: the EC50 reads like this: under setting [1], 3 to 10 µM; under setting [2], below 3 µM. Further, the “Maximum % activity (with co-corrector)” value (with co-corrector) was “++ (≥150 and <350)”. The Emax (without co-corrector) is below 50%.

With `COc1ccc(C(C)(C)C)cc1C1(C(=O)NS(=O)(=O)c2cccc3ncccc23)CC1` [Example I-34, 1-(5-tert-butyl-2-methoxyphenyl)-N-(quinoline-5-sulfonyl)cyclopropane-1-carboxamide], the EC50 by setting is: under setting [1], below 3 µM; under setting [2], below 3 µM. Also, the “Maximum % activity (with co-corrector)” value (with co-corrector) is “+++ (≥350)”. Also, under “without co-corrector”, the Emax was above 150%.

As to `COc1ccc(Cl)c(OC)c1C1(C(=O)NS(=O)(=O)c2cccc3ncccc23)CC1` [II-54], the EC50 reads like this: under setting [1], below 3 µM; under setting [2], below 3 µM. Besides, the “Maximum % activity (with co-corrector)” value (with co-corrector) was “+++ (≥350)”. Further, the Emax (without co-corrector) is above 150%.

`COc1ccc(C2(OC)COC2)cc1C1(C(=O)NS(=O)(=O)c2cccc3ncccc23)CC1` [Example III-128, 1-[2-methoxy-5-(3-methoxyoxetan-3-yl)phenyl]-N-(quinoline-5-sulfonyl)cyclopropane-1-carboxamide]: the EC50 is, setting by setting: under setting [1], 3 to 10 µM; under setting [2], 3 to 10 µM. Further, the “Maximum % activity (with co-corrector)” value (with co-corrector) is “++ (≥150 and <350)”. The Emax (without co-corrector) was below 50%.

As for `COc1ncc(C(F)(F)F)cc1C1(C(=O)NS(=O)(=O)c2cccc3c2ccn3C)CC1` [II-18], the EC50 reads like this: under setting [1], 3 to 10 µM; under setting [2], below 3 µM. The “Maximum % activity (with co-corrector)” value (with co-corrector) was “+++ (≥350)”. For the same compound, the Emax (without co-corrector) was above 150%.

`O=C(NS(=O)(=O)c1ccc(Br)s1)C1(c2ccc(Cl)cc2Cl)CC1` [Example III-63, N-(5-bromothiophene-2-sulfonyl)-1-(2,4-dichlorophenyl)cyclopropane-1-carboxamide]: the EC50 was above 10 µM under setting [1] and 3 to 10 µM under setting [2]. Moreover, the “Maximum % activity (with co-corrector)” value (with co-corrector) is “++ (≥150 and <350)”. The Emax (without co-corrector) was below 50%.

`O=C(NS(=O)(=O)c1cccc2c1CCCN2)C1(c2ccc(C(F)(F)F)nc2C2CC2)CC1` [Example GI-6, 1-[2-cyclopropyl-6-(trifluoromethyl)pyridin-3-yl]-N-(1,2,3,4-tetrahydroquinoline-5-sulfonyl)cyclopropane-1-carboxamide]: the concentration giving a half-maximal response (EC50) is 3 to 10 µM under setting [1] and below 3 µM under setting [2]. In addition, the “Maximum % activity (with co-corrector)” value (with co-corrector) is given as “+++ (≥350)”. Besides, where the note is “without co-corrector”, the Emax is above 150%.

Regarding `CC(C)Oc1ncc(N(C)C)cc1C1(C(=O)NS(=O)(=O)c2cccc3[nH]ccc23)CC1` [Example GI-73, 1-{5-(dimethylamino)-2-[(propan-2-yl)oxy]pyridin-3-yl}-N-(1H-indole-4-sulfonyl)cyclopropane-1-carboxamide], the “Maximum % activity (with co-corrector)” value under setting [3] was “+++ (≥350)”. Moreover, the EC50 runs as follows: under setting [4], below 3 µM; under setting [6], 3 to 10 µM. The Emax under setting [5] was above 150%.

On to `Cc1noc(C)c1S(=O)(=O)NC(=O)C1(c2ccc(Cl)cc2Cl)CC1` [Example III-12, 1-(2,4-dichlorophcnyl)-N-(3,5-dimethyl-1,2-oxazole-4-sulfonyl)cyclopropane-1-carboxamide], for which the half-maximal effective concentration (EC50) by setting is: under setting [1], above 10 µM; under setting [2], 3 to 10 µM. Besides, the “Maximum % activity (with co-corrector)” value (with co-corrector) is “++ (≥150 and <350)”. Further, the Emax (without co-corrector) is below 50%.

Regarding `O=C(NS(=O)(=O)c1cccc2c1CCCN2)C1(c2ccc(C(F)(F)F)nc2Cl)CC1` [GIII-28], the “Maximum % activity (with co-corrector)” value under setting [3] was “++ (≥150 and <350)”. Also, the EC50 under setting [4] is above 10 µM and the concentration giving a half-maximal response (EC50) under setting [6] was above 10 µM. Moreover, the Emax under setting [5] is below 50%.

`COCC(C)(C)c1ccc(OC)c(C2(C(=O)NS(=O)(=O)c3cccc4nc(C)ccc34)CC2)c1` [II-113]: the EC50 reads like this: under setting [1], below 3 µM; under setting [2], below 3 µM. Under “with co-corrector”, the “Maximum % activity (with co-corrector)” value was “+++ (≥350)”. Also, where the note is “without co-corrector”, the Emax is above 150%.

As to `COc1ccc(C2CCC2)cc1C1(C(=O)NS(=O)(=O)c2cccc3c2CCCN3)CC1` [Example I-16, 1-(5-cyclobutyl-2-methoxyphenyl)-N-(1,2,3,4-tetrahydroquinoline-5-sulfonyl)cyclopropane-1-carboxamide], the EC50 under setting [1] fell in the range of 3 to 10 µM and the EC50 under setting [2] was below 3 µM. Further, the “Maximum % activity (with co-corrector)” value (with co-corrector) is given as “+++ (≥350)”. Where the note is “without co-corrector”, the Emax was above 150%.

For the compound `COc1cccc(C2(C(=O)NS(=O)(=O)c3cccc4ncccc34)CC2)c1` [II-56], the EC50 lay within 3 to 10 µM under setting [1] and 3 to 10 µM under setting [2]. In addition, under “with co-corrector”, the “Maximum % activity (with co-corrector)” value is reported as “+++ (≥350)”. Moreover, the Emax (without co-corrector) is above 150%.

As to `O=C1Cc2cc(S(=O)(=O)NC(=O)C3(c4cccc(Cl)c4)CC3)ccc2N1` [Example III-75, 1-(3-chlorophenyl)-N-(2-oxo-2,3-dihydro-1H-indole-5-sulfonyl)cyclopropane-1-carboxamide], the EC50 was above 10 µM under setting [1] and above 10 µM under setting [2]. The “Maximum % activity (with co-corrector)” value (with co-corrector) is “+ (<150)”. Further, where the note is “without co-corrector”, the Emax is below 50%.

Turning to `Cc1ccccc1S(=O)(=O)NC(=O)C1(c2cccc(Cl)c2)CCCC1` [Example III-83, 1-(3-chlorophenyl)-N-(2-methylbenzene-1-sulfonyl)cyclopentane-1-carboxamide], the EC50 is above 10 µM under setting [1] and above 10 µM under setting [2]. The “Maximum % activity (with co-corrector)” value (with co-corrector) is “++ (≥150 and <350)”. The Emax (without co-corrector) is below 50%.

For `COc1cc(C2CCC2)cc(OC)c1C1(C(=O)NS(=O)(=O)c2cccc3cnn(C)c23)CC1` [II-67], the EC50 runs as follows: under setting [1], below 3 µM; under setting [2], below 3 µM. Moreover, for the setting “with co-corrector”, the “Maximum % activity (with co-corrector)” value is reported as “+++ (≥350)”. Also, the Emax (without co-corrector) was above 150%.

In the case of `CCOc1ccc(C(C)(C)OCC)cc1C1(C(=O)NS(=O)(=O)c2cccc3nc(C)ccc23)CC1` [Example I-103, 1-[2-ethoxy-5-(2-ethoxypropan-2-yl)phenyl]-N-(2-methylquinoline-5-sulfonyl)cyclopropane-1-carboxamide], the EC50 runs as follows: under setting [1], below 3 µM; under setting [2], below 3 µM. Also, the “Maximum % activity (with co-corrector)” value (with co-corrector) is reported as “+++ (≥350)”. Further, where the note is “without co-corrector”, the Emax is above 150%.

In the case of `O=C(NS(=O)(=O)c1ccccc1)C1(c2ccccc2Cl)CC1` [Example III-32, N-(benzenesulfonyl)-1-(2-chlorophenyl)cyclopropane-1-carboxamide], the concentration for a half-maximal effect (EC50) is 3 to 10 µM under setting [1] and 3 to 10 µM under setting [2]. The “Maximum % activity (with co-corrector)” value (with co-corrector) was “++ (≥150 and <350)”. Moreover, where the note is “without co-corrector”, the Emax is below 50%.

For the compound `Cc1ccc2c(S(=O)(=O)NC(=O)C3(c4cc(Cl)ccc4OC(F)F)CC3)cccc2n1` [II-102], the EC50 is, setting by setting: under setting [1], 3 to 10 µM; under setting [2], below 3 µM. Also, the “Maximum % activity (with co-corrector)” value (with co-corrector) is reported as “+++ (≥350)”. In addition, the Emax (without co-corrector) is above 150%.

`COc1cc(C)c(C2(C(=O)NS(=O)(=O)c3cccc4ccccc34)CC2)cn1` [GII-22, 1-(6-methoxy-4-methylpyridin-3-yl)-N-(naphthalene-1-sulfonyl)cyclopropane-1-carboxamide]: the “Maximum % activity (with co-corrector)” value under setting [3] is recorded as “+++ (≥350)”. The EC50 lay within 3 to 10 µM under setting [4] and 3 to 10 µM under setting [6]. For the same compound, under setting [5], the Emax is above 150%.

On to `COc1ccc(C)c(OC)c1C1(C(=O)NS(=O)(=O)c2cccc3[nH]ccc23)CC1` [Example I-42, 1-(2,6-dimethoxy-3-methylphenyl)-N-(1H-indole-4-sulfonyl)cyclopropane-1-carboxamide], for which the EC50 was below 3 µM under setting [1] and below 3 µM under setting [2]. Further, the “Maximum % activity (with co-corrector)” value (with co-corrector) is reported as “+++ (≥350)”. Besides, the Emax (without co-corrector) is above 150%.

For the compound `O=C(NS(=O)(=O)c1cccc2ncccc12)C1(c2cc(C3CC3)cnc2N2CCOCC2)CC1` [GIII-25], under setting [3], the “EC50 (with co-corrector)” value is recorded as “++^a”; the “Maximum % activity (with co-corrector)” value was “++ (≥150 and <350)”. In addition, under setting [5], the “EC50 (without co-corrector)” value is listed as “++^a” and the Emax lay in the range of 50 to 150%.

For the compound `COc1ccc(C(C)(C)C)cc1C1(C(=O)NS(=O)(=O)c2cccc3nc(C)ccc23)CC1` [Example I-70, 1-(5-tert-butyl-2-methoxyphenyl)-N-(2-methylquinoline-5-sulfonyl)cyclopropane-1-carboxamide], the EC50 runs as follows: under setting [1], below 3 µM; under setting [2], below 3 µM. In addition, under “with co-corrector”, the “Maximum % activity (with co-corrector)” value is on record as “+++ (≥350)”. Also, the Emax (without co-corrector) is above 150%.

For `Cc1ccc(C2(C(=O)NS(=O)(=O)c3cccc4[nH]ccc34)CC2)c(OC(C)C)n1` [Example GI-82, N-(1H-indole-4-sulfonyl)-1-{6-methyl-2-[(propan-2-yl)oxy]pyridin-3-yl}cyclopropane-1-carboxamide], the “Maximum % activity (with co-corrector)” value under setting [3] is on record as “+++ (≥350)”. Further, the EC50 was below 3 µM under setting [4] and below 3 µM under setting [6]. Moreover, under setting [5], the Emax is above 150%.

As for `CCCS(=O)(=O)NC(=O)C1(c2cccc(C)c2)CCOCC1` [Example III-120, 4-(3-methylphenyl)-N-(propane-1-sulfonyl)oxane-4-carboxamide], the half-maximal effective concentration (EC50) under setting [1] is above 10 µM and the concentration giving a half-maximal response (EC50) under setting [2] was above 10 µM. Moreover, the “Maximum % activity (with co-corrector)” value (with co-corrector) is “+ (<150)”. Moreover, under “without co-corrector”, the Emax was below 50%.
